In patent US20080009546A1 (Chevron U.S.A. Inc., priority 2005, published 2008):
Read-outs that look alike come from different tables or passages of the source.

Columns and labels:
NMDA receptor = test: [3H]MK-801 binding assay, NMDA receptors in guinea pig brain membranes; conditions: for Relative affinity: compared to that of Memantine
Experimental: Hartley guinea pigs were sacrificed, and their brains were quickly removed and weighed. The brains then were homogenized in 50 mM Tris HCl buffer, pH 7.7, using a Polytron homogenizer. The homogenate was centrifuged at 40,000×g for 15 min, rehomogenized, and centrifuged again. The final pellet was resuspended in Tris-HCl, pH 7.7, at a final concentration of 6.67 mg original wet weight of tissue/ml. […] The samples were then filtered through glass fiber filters on a Tomtec cell harvester. The filters were washed 3 times with 3 ml of cold buffer. Filters were dried overnight and counted next day on a Wallac Betaplate Reader.
The binding experiments were conducted as follows. […] For each compound, graphs were prepared containing individual competition curves obtained for that compound. IC50 values and Hill coefficients were calculated using the program Prism. Ki values were calculated using the Chang Prusoff transformation: Ki=IC50/(1+L/Kd)
where L is radioligand concentration and Kd is the binding affinity of the radioligand, as determined previously by saturation analysis. […] In each experiment, one standard compound was simultaneously run on each 96 well plate.

[1] = test system: primary neurons from rat cerebral cortex; test: NMDA-induced LDH release assay in primary cortical neurons (neuroprotection); assay type: cell-based; parameters: Total LDH (Avg): unit not given here; conditions: for % (Control Wash = 100) / Secreted LDH (Avg) / Secreted/(total + secreted) (Avg) / Total LDH (Avg): MDT compound 30 uM, 24 hour incubation
Experimental: The neuroprotective properties of drugs have been studied in vitro, using neurons cultured from cortex, cerebellum or retina. […] Neurotoxicity is determined in this assay by measuring lactate dehydrogenase (LDH), a method which is simple, accurate and reproducible. We conducted pilot studies to test if poly-lysine-coated plates would be suitable as a matrix upon which to plate fetal neurons, compared to astrocyte-coated plates. We also compared the use of growth medium to neurobasal medium supplemented with B27 in the pilot experiments. The concentrations of NMDA (300-500 μM), glycine (10-50 μM), and memantine (10-100 μM) were varied, and optimum concentrations and times determined from these pilot studies were then chosen for the main study. The assay is described below.
Fetal rat neocortical cells were cultured on a mouse astroglial feeder layer. To obtain mouse astroglial cells for the feeder layer, cortices were harvested from 1-day old Swiss Webster mice (Charles River, Hollister, Calif.) according to the procedure described by Rose et al (1993). After dissecting cortices in ice-cold dissecting medium, they were minced and incubated in 0.09% trypsin in media stock for 1 hr, followed by resuspension in growth medium containing 10% equine serum and 10% fetal bovine serum. A single-cell suspension was obtained by triturating through fire-bored glass pipettes, and the resulting cell suspension was plated at a density of 0.5-0.75 hemispheres/24-well plate/9.6 ml, with 0.4 ml/well. Plates were incubated in a humidified incubator at 37° C., 5% CO2. Astroglial cells become confluent in about 2-3 weeks, at which time these cultures are ready to be used as feeder layers upon which neuronal cultures can be plated. Neuronal cells were obtained from gestational Sprague-Dawley rats E16-E18, using a similar dissection procedure. Rat embryos were dissected to obtain cortical tissue, which was plated as a single-cell suspension at a density of 1.4 hemispheres/24-well plate/9.6 ml, with 0.4 ml/well. These cells were plated on the existing astroglial feeder layer, and were incubated at 37° C., 5% CO2. After 5 days in culture, cytosine arabinoside (10 μM) was added to the wells to inhibit glial cell proliferation, and after 24 hours, the medium was replaced with fresh growth medium. Cells were fed with fresh growth medium every 2 days, until the experiments were performed. For coating plates with poly-lysine, we used poly-d-lysine hydrobromide (Sigma Cat # P7280) at a concentration of 0.1 mg/ml to coat each well using a minimum volume of 0.2 ml/well. After coating for 5 minutes, the solution was aspirated and wells were rinsed thoroughly with sterile tissue culture grade water. After drying for 2 hours, plates were ready for use. Neuronal cultures were plated onto poly-lysine-coated plates at the same density as above. For the pilot study, some of the cultures were fed with 1:1 ratio of growth medium: neurobasal medium (GIBCO)+B-27 supplement (2%), while the rest of the cultures were fed with growth medium alone (Losi et al., 2006). For the main study, we used astroglial feeder layers to plate the neuronal cultures, and used a mix (1:1) of growth medium with neurobasal medium+B-27 supplement for feeding the cultures.
After 11-14 days in culture, neuronal cells were confluent and experiments were performed. Cells were washed twice using sterile Locke's buffer (154 mM NaCl, 5.6 mM KCl, 2.3 mM CaCl2, 3.6 mM NaHCO3, 5.5 mM D-glucose, 5 mM HEPES, pH 7.4), and then exposed to the various treatment compounds. […] After 15 minutes, cultures were washed twice and incubated overnight in media stock. After 24 hours, supernatants and lysates were collected to measure LDH activity. LDH activity was measured by the reduction of NAD, which was utilized in the stoichiometric conversion of a tetrazolium dye using a kit (Sigma TOX-7). Supernatants were removed from the wells and centrifuged before LDH measurements. The adherent cells were lysed to obtain total LDH. […]

[2] = guinea pig brain membrane preparation (Table 29), read-out: Ki
[3] = [3H]MK-801 (1 nM), guinea pig brain membrane preparation, read-out: Ki (binding affinity)
[4] = Plate #5, astrocyte-coated rat neurons, GM fed
[5] = Plate #4, poly-lysine-coated rat neurons, GM/NB + B-27 fed
[6] = astrocyte-coated rat neurons, GM/NB + B-27 fed

Compound | Relative affinity (NMDA receptor) | Ki (NMDA receptor; [2]) [µM] | other results
1,6-dimethyl-2-aminodiamantane mixture [MDT-6] | 0.159 | 4.6 ± 0.18 | 
1,6-dimethyl-4-aminodiamantane mixture [MDT-7] | 0.074 | 9.9 ± 0.45 | 
2-aminotriamantane [MDT-50] | 0.038 |  | Ki (NMDA receptor; [3]): 19.1 µM; EC50 ([1]; two experiments, 300 uM NMDA + 50 μM glycine 15 minutes, LDH after 24 hours, read-out: average EC50 (±SD), NMDA-induced LDH release): 107 ± 88.3 µM
3-amino-triamantane [MDT-48] | 0.052 |  | Ki (NMDA receptor; [3]): 14 µM
CC12CC3(N)CC4C5CC(CC41)CC2C5C3 (single isomer, unassigned) [MDT-22 (prep from Example 4)] | 0.332 | 2.2 ± 0.9 | 
CC12CC3(N)CC4C5CC(CC41)CC2C5C3 (single isomer, unassigned) [MDT-22 (prep from Example 7)] | 0.070 | 10.5 ± 1 | 
NC12CC3CC4C5CC(CC41)CC2C5C3 [MDT #1] |  |  | % (Control Wash = 100) [1, 4]: 99%; Secreted LDH (Avg) [1, 4]: 0.18; Secreted/(total + secreted) (Avg) [1, 4]: 5.81; Total LDH (Avg) [1, 4]: 2.96
NC12CC3CC4C5CC(CC41)CC2C5C3 [MDT #2] |  |  | % (Control Wash = 100) [1, 4]: 118%; Secreted LDH (Avg) [1, 4]: 0.23; Secreted/(total + secreted) (Avg) [1, 4]: 6.93; Total LDH (Avg) [1, 4]: 3.09
NC12CC3C4CC5(N)CC3C(C1)C(C5)C4C2 [MDT #5] |  |  | % (Control Wash = 100) [1, 4]: 123%; Secreted LDH (Avg) [1, 4]: 0.25; Secreted/(total + secreted) (Avg) [1, 4]: 7.21; Total LDH (Avg) [1, 4]: 3.27
OC12CC3CC4C1CC1CC4C(O)(C3)C2C1 [MDT #13] |  |  | % (Control Wash = 100) [1, 5]: 139%; Secreted LDH (Avg) [1, 5]: 0.54; Secreted/(total + secreted) (Avg) [1, 5]: 15.25; Total LDH (Avg) [1, 5]: 2.99; % (Control Wash = 100) [1, 6]: 276%; Secreted LDH (Avg) [1, 6]: 0.85; Secreted/(total + secreted) (Avg) [1, 6]: 19.97; Total LDH (Avg) [1, 6]: 3.41
NC12CC3CC4C5CC(CC41)CC2C5C3 [MDT-1] | 0.097 | 7.5 ± 2.4 | 
NC12CC3CC4C5CC(CC41)CC2C5C3 [MDT-2] | 0.114 | 6.4 ± 0.13 | 
NC12CC3CC4C1CC1CC2C(C3)C4(N)C1 [MDT-4] | 0.007 | 99.6 ± 7.6 | 
NC12CC3C4CC5(N)CC3C(C1)C(C5)C4C2 [MDT-5] | 0.003 | 268 ± 19 | 
OC12CC3CC4C5CC(CC41)CC2C5C3 [MDT-10] |  | > 1000 | 
OC12CC3C4CC5CC3C(C1)C(C5)C4C2 [MDT-11] |  | > 1000 | 
OC12CC3CC4C1CC1CC4C(O)(C3)C2C1 [MDT-13] |  | > 1000 | 
OC12CC3C4CC5(O)CC3C(C1)C(C5)C4C2 [MDT-14] |  | > 1000 | 
OC12CC3C4CC5C6CC7(O)CC5C(C4C1)C(C2)(C7)C36 [MDT-15] |  | > 1000 | 
CC12CC3CC4C1CC1(N)CC2C(C3)C4(C)C1 [MDT-23 (prep from Example 4)] | 0.187 | 3.9 ± 0.07 | 
CC12CC3CC4C1CC1(N)CC2C(C3)C4(C)C1 [MDT-23 (prep from Example 5)] | 0.243 | 3 ± 0.9 | 
O=NC12CC3CC4C5CC(CC41)CC2C5C3 [MDT-26] |  | > 1000 | 
O=NC12CC3C4CC5CC3C(C1)C(C5)C4C2 [MDT-27] |  | > 1000 | 
CC12CC3(N)CC4C5CC(N)(CC41)CC2C5C3 [MDT-28, 1-methyl-4,9-diaminodiamantane] |  | > 1000 | 

Compound | Relative affinity (NMDA receptor) | Ki (NMDA receptor; [2]) [µM] | other results
CC12CC3CC4C1CC1(N)CC2C(C3)C4(N)C1 [MDT-29] | 0.018 | 41 ± 10.7 | 
CC12CC3CC4C1CC1(N)CC2C(C3)C4(C)C1 [MDT-33, 1,6-dimethyl-4-aminodiamantane] | 0.094 | 7.8 ± 0.9 | 
O=C(O)C12CC3CC4C5CC(CC41)CC2C5C3 [MDT-38] |  | > 1000 | 
O=C(O)C12CC3CC4C1CC1CC2C(C3)C4(C(=O)O)C1 [MDT-39] |  | > 1000 | 
OC12C3CC4CC5C3CC3C6CC(CC31)CC2(C4)C56 [MDT-40] |  | > 1000 | 
OC12CC3CC4C1CC1C5CC6CC1C2C(C6)(C3)C54 (centres unmarked) [MDT-41] |  | > 1000 | 
OC12CC3C4CC5C6CC7CC5C(C4C1)C(C7)(C2)C63 [MDT-42] |  | > 1000 | 
CC12CC3CC4C1CC1CC2C(O)(C3)C4(C)C1 (centres unmarked) [MDT-44, 1,6-dimethyl-2-hydroxydiamantane] |  | > 1000 | 
CC12CC3CC4C1CC1(O)CC2C(C3)C4(C)C1 [MDT-45, 1,6-dimethyl-4-hydroxydiamantane] | 0.007 | 98.6 ± 0.1 | 
CC12CC3CC4C1CC1(C(=O)O)CC2C(C3)C4(C)C1 [MDT-46, 1,6-dimethyl-4-diamantanecarboxylic acid] |  | > 1000 | 
CC12CC3C4CC5(C)CC3C(C1)C(O)(C5)C4C2 [MDT-47, 4,9-dimethyl-1-hydroxydiamantane] |  | > 1000 | 
NC12CC3C4CC5C6CC7CC5C(C4C1)C(C7)(C2)C63 [MDT-49, 9-amino-triamantane] | 0.002 |  | Ki (NMDA receptor; [3]): 389 µM
CC12CC3C4CC5(C)CC3C(C1)C(C(=O)O)(C5)C4C2 [MDT-52, 4,9-dimethyl-1-diamantanecarboxylic acid] |  | > 1000 | 
CC12CC3C4CC5(C)CC(C(C1)C3(N)C5)C4(N)C2 [MDT-53, 4,9-dimethyl-1,6-diaminodiamantane] | 0.007 | 112 ± 14 | 
NCC12CC3CC4C5CC(CC41)CC2C5C3 [MDT-56] | 0.074 | 9.8 ± 4.5 | 
CC(N)C12CC3CC4C5CC(CC41)CC2C5C3 (centres unmarked) [MDT-57] | 0.183 | 4 ± 0.1 | 
O=C1C2CC3C4CC5CC3C1C(C5)C4C2 [MDT-59] |  | > 1000 | 
CC12CC3C4CC5CC3C(C1)C(C5)C4C2 [MDT-60] |  | > 1000 | 
Cl.NCC12CC3C4CC5CC3C(C1)C(C5)C4C2 [MDT-61] | 0.091 | 8 ± 0.9 | 
CC12CC3C4CC5(C)CC3C(C1)C(CN)(C5)C4C2 [MDT-63] | 0.143 | 5.1 ± 0.3 | 
CC12CC3CC4C1CC1(CN)CC2C(C3)C4(C)C1 [MDT-65] | 0.100 | 7.3 ± 1.1 | 
mixture of 1-amino-4-methyldiamantane and 2-amino-4-methyldiamantane [MDT-32] | 0.064 | 11.4 ± 3.7 | 
mixture of 1-methyl-2-aminodiamantane and 1-methyl-6-aminodiamantane [MDT-31] | 0.187 | 3.9 ± 0.2 | 
mixture of 4-methyl-9-aminodiamantane and 4-aminodiamantane [MDT-34] |  | > 1000 | 
